Patent US10689354B2, “Aminoazole derivative” (Teijin Pharma Limited, priority 2015, dated 2020)

Each compound was assayed against T1, androgen receptor (AR-LBD) (Rattus norvegicus, UniProt P15207) (assay: Evaluation of androgen receptor affinity (PolarScreen Androgen Receptor Competitor Assay Kit, Red; fluorescence polarization)). Conditions: 22° C. for 5 hours, relative to binding rate of 1 μM DHT, read-out: AR affinity (pEC50) (converted).
T1 construct: 5 μL of 2×AR-LBD/Fluoromone AL Red Complex contained in the kit; purchased Invitrogen
T1 sequence (P15207 651-882 limits assumed): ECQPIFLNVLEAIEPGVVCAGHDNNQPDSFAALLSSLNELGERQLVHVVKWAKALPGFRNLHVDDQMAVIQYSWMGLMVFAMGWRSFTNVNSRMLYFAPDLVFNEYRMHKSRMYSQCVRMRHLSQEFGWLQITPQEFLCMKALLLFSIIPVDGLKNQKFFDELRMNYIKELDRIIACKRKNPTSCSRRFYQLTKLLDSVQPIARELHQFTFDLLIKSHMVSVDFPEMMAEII
Method in brief: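 Test compound and the 2× AR-LBD/Fluoromone AL Red complex were combined in duplicate wells. After reacting 5 h at 22° C, polarization was measured. pEC50 was derived by 4-parameter fitting, normalizing to binding obtained with 1 μM dihydrotestosterone.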

| EC50 | SMILES |
| --- | --- |
| > 2000 nM | Cc1sc(N(Cc2ccccc2)c2cccc(Cl)c2)nc1C(=O)NS(C)(=O)=O [Compound 32, 2-(N-benzyl-3-chloro-anilino)-5-methyl-N-methylsulfonyl-thiazole-4-carboxamide] |
| 501 nM | Cc1sc(N(Cc2ccc(C(F)(F)F)cc2C(F)(F)F)c2ccc(C#N)cc2)nc1C(=O)NS(C)(=O)=O [Compound 414, 2-[N-[[2,4-bis(trifluoromethyl)phenyl]methyl]-4-cyano-anilino]-5-methyl-N-methylsulfonyl-thiazole-4-carboxamide] |
| > 2000 nM | Cc1sc(N(Cc2ccccc2)c2ccc(O)cc2)nc1C(=O)NS(C)(=O)=O [Example 206, 2-(N-benzyl-4-hydroxy-anilino)-5-methyl-N-methylsulfonyl-thiazole-4-carboxamide] |
| > 2000 nM | Cc1sc(N(c2ccc(C#N)cc2)C(C)c2ccccc2)nc1C(=O)NS(C)(=O)=O (stereo not drawn) [Compound 58, 2-[4-cyano-N-(1-phenylethyl)anilino]-5-methyl-N-methylsulfonyl-thiazole-4-carboxamide] |
| 1260 nM | Cc1sc(N(Cc2ccccc2)c2cccc(C(F)(F)F)c2)nc1C(=O)NS(C)(=O)=O [Example 224, 2-[N-benzyl-3-(trifluoromethyl)anilino]-5-methyl-N-methylsulfonyl-thiazole-4-carboxamide] |
| > 2000 nM | Cc1sc(N(CCCc2ccccc2)c2ccc(C#N)cc2)nc1C(=O)NS(C)(=O)=O [Compound 433, 2-[4-cyano-N-(3-phenylpropyl)anilino]-5-methyl-N-methylsulfonyl-thiazole-4-carboxamide] |
| > 2000 nM | Cc1sc(N(Cc2ccccc2C#N)c2ccc(C#N)cc2)nc1C(=O)NS(C)(=O)=O [Compound 8, 2-[4-cyano-N-[(2-cyanophenyl)methyl]anilino]-5-methyl-N-methylsulfonyl-thiazole-4-carboxamide] |
| 1260 nM | Cc1sc(N(Cc2ccccc2)c2ccncc2)nc1C(=O)NS(C)(=O)=O [Compound 422, 2-[benzyl(4-pyridyl)amino]-5-methyl-N-methylsulfonyl-thiazole-4-carboxamide] |
| 100 nM | COc1ccccc1CN(c1ccc(C#N)cc1)c1nc(C(=O)NS(C)(=O)=O)c(Br)s1 [Example 249, 5-bromo-2-[4-cyano-N-[(2-methoxyphenyl)methyl]anilino]-N-methylsulfonyl-thiazole-4-carboxamide] |
| > 2000 nM | Cc1sc(N(CC(=O)C2CCCCC2)c2ccc(C#N)cc2)nc1C(=O)NS(C)(=O)=O [Compound 432, 2-(4-cyano-N-(2-cyclohexyl-2-oxo-ethyl)anilino)-5-methyl-N-methylsulfonyl-thiazole-4-carboxamide] |
| > 2000 nM | Cc1noc(C)c1CCN(Cc1ccccc1)c1nc(C(=O)NS(C)(=O)=O)c(C)s1 [Compound 691, 2-[benzyl-[2-(3,5-dimethylisoxazol-4-yl)ethyl]amino]-5-methyl-N-methylsulfonyl-thiazole-4-carboxamide] |
| > 2000 nM | Cc1sc(N(CCc2ccc(C#N)cc2)CC2CCCCC2)nc1C(=O)NS(=O)(=O)Cc1cccc(F)c1 [Compound 720, 2-[2-(4-cyanophenyl)ethyl-(cyclohexylmethyl)amino]-N-[(3-fluorophenyl)methylsulfonyl]-5-methyl-thiazole-4-carboxamide] |
| 501 nM | Cc1sc(N(CC2CCC2)c2ccc(C#N)cc2)nc1C(=O)NS(C)(=O)=O [Compound 440, 2-[4-cyano-N-(cyclobutylmethyl)anilino]-5-methyl-N-methylsulfonyl-thiazole-4-carboxamide] |
| > 2000 nM | Cc1sc(N(Cc2ccccc2)c2cccc(OCCO)c2)nc1C(=O)NS(C)(=O)=O [Example 210, 2-[N-benzyl-3-(2-hydroxyethoxy)anilino]-5-methyl-N-methylsulfonyl-thiazole-4-carboxamide] |
| 1580 nM | Cc1sc(N(CCc2ccc(O)cc2)c2ccc(C#N)cc2)nc1C(=O)NS(C)(=O)=O [Compound 62, 2-[4-cyano-N-[2-(4-hydroxyphenyl)ethyl]anilino]-5-methyl-N-methylsulfonyl-thiazole-4-carboxamide] |
